Data set [1] can be described thus: Stability in water in presence of air (UV-vis, 1H and 31P NMR). Format: physicochemical. How it is done: The stability of all the complexes in water was evaluated by ^31P NMR and UV–visible spectroscopies. Generally, a 5 mm NMR tube was charged in the air with the 10 mg of each complex and D2O (0.8 mL). ^1H NMR and ^31P NMR were monitored for four days to evaluate if there was any decomposition product. Decomposition/instability of the compound can be assessed by the disappearance of the NMR signals and/or by the appearance of new signals that could not be assigned to the known complex, beyond the appearance of free mTPPMS phosphine signals. Any eventual changes in the charge transfer bands between ruthenium and ligands were followed by UV–visible in the 300–900 nm range.

Data set [2] in a line: n-Octanol/water partition coefficient, shake-flask method. The data set is classed as physicochemical. The note with it: room temperature. How it is done: The lipophilicity of the complexes was measured by the shake-flask method. Distilled water and n-octanol were mixed vigorously for 24 h at 25 °C, to promote solvent saturation in both phases, before the experiments. […] Aliquots of stock solutions were equilibrated with octanol for 4 h in a mechanical shaker. The phase ratio was 2 mL/2 mL (water/n-octanol). The aqueous and octanol layers were carefully separated (by centrifugation at 5000 rpm for 10 min), and UV–vis absorption spectra of the compounds were registered in both phases. The concentration for each sample was determined using the calibration curve. Triplicate experiments have been performed for each complex and the averages were calculated.

Data set [3] relates to A2780 ovarian cancer cells. The data set can be described thus: MTT cytotoxicity assay, A2780. The data set is classed as cell-based, human. Conditions: A2780, 72 h, mean ± SD n = 3. How it is done:
(§1) The cytotoxic activity of all complexes was screened against A2780 (ovarian, Sigma-Aldrich, Lisboa, Portugal), MDAMB231 (breast, triple negative, ATCC), and HT29 (colon, ATCC) human cancer cells. Cells were grown in RPMI 1640 (A2780) or DMEM containing GlutaMax-I (MDAMB231), or McCoy’s (HT29) supplemented with 10% FBS and 1% penicillin/streptomycin (Invitrogen, Lisboa, Portugal). All cell lines were kept in a CO2 incubator (Heraeus, Hanau, Germany) with 5% CO2 at 37 °C in a humidified atmosphere. Cell viability was measured using the colorimetric MTT (3-(4,5-dimethylthiazol-2-yl)-2,5-diphenyltetrazolium bromide) assay. For the assays, cells were seeded in 200 μL of complete medium in 96-well plates and incubated at 37 °C for 24 h prior to complex treatment to allow cell adherence. The stock solutions in water (20 mM) of the complexes were freshly prepared and used for sequential dilutions in medium within the concentration range of 10^−10–10^−4 M. Cisplatin was also included in this study as a positive control. After careful removal of the medium, […] of a serial dilution of compounds in fresh medium was added to the cells, and incubation was carried out for 72 h at 37 °C. At the end of the treatment, the medium was discarded, and the cells were incubated with […] of an MTT solution in PBS (0.5 mg mL^−1). After 3 h incubation, medium was removed, and DMSO was added to solubilize the purple formazan crystals formed. The absorbance at 570 nm was measured using a plate spectrophotometer (Power Wave Xs, Bio-Tek, Winooski, VT, USA). Each experiment was repeated at least three times and each concentration tested in at least six replicates. The IC50 values were calculated from dose–response curves analyzed with the GraphPad Prism software (version 5.0).
On the technique in general: Tetrazolium assays rely on reduction of a dye to a coloured formazan, in cell work by metabolically active cells.

Data set [4] relates to MDAMB231 triple-negative breast cancer cells. Put plainly: MTT cytotoxicity assay, MDAMB231. The note with it: MDAMB231, 72 h, mean ± SD n = 3. Format: cell-based, human. As to the method:
as §1

In another data set the test system is HT29 colon cancer cells. The data set can be described thus: MTT cytotoxicity assay, HT29. The data set is classed as cell-based, human. Conditions: HT29, 72 h, mean ± SD n = 3. How it is done:
as §1

Data set [5] deals with T1, {HSA-warfarin} adduct, Sudlow site I of HSA (Homo sapiens, UniProt P02768).
T1 construct: purchased Sigma-Aldrich
Put plainly: Site-marker competitive study with warfarin. The note with it: HSA and warfarin equimolar 2.5 μM, Ru 0-45 μM, excitation 305 nm, emission ~380 nm. Format: binding. As to the method: Competitive binding studies were carried out by fluorescence using the classical site marker warfarin. The concentrations of HSA and warfarin were kept equimolar. The addition of complex 6 to {HSA-warfarin} solution was done according to the procedure described above for the steady-state fluorescence quenching studies.

Marks after values point to notes of the source that are not given here.

For orientation: IC50 means the concentration at which inhibition is half-maximal. Low values mean inhibition by little substance, high ones a need for much substance.

T1 sequence (P02768 25-609): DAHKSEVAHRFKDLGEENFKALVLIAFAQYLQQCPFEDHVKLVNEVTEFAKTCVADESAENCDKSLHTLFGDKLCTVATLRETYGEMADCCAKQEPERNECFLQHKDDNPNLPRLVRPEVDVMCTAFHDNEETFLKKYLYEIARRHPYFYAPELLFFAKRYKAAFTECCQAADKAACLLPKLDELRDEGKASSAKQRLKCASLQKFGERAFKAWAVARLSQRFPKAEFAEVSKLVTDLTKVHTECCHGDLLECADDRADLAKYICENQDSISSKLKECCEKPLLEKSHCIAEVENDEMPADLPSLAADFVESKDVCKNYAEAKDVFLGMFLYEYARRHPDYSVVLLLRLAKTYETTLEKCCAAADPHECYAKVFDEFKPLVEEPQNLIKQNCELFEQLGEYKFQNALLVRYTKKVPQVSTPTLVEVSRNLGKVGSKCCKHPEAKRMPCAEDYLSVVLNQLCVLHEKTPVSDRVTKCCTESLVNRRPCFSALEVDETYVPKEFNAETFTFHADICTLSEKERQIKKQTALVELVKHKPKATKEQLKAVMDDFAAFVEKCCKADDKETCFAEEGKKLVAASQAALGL

With “[RuCp(mTPPMSNa)(bopy)][CF3SO3] [Compound 6]”, the “Changes in the UV–vis spectra in aqueous solution” value in data set [1] (over 4 days at 37 °C) is on record as “insignificant”. The “Stability in water, Time (Days)” value in data set [1] (water, in presence of air, 25 °C, time without hydrolysis) was >4 ^[b] Days. Further, the “Log Po/w” value in data set [2] stood at 5.68 ± 0.05. The half-inhibitory concentration (IC50) in data set [3] was determined as 0.37 ± 0.2 µM; in data set [4], 13.4 ± 0.4 µM; in the data set with HT29 colon cancer cells, 72.4 ± 50 µM. Besides, the “Displacement of warfarin from {HSA-warfarin} adduct (in words)” value in data set [5] is given as “partially replaced”.

These data come from paper PMC9321894, “Design and Anticancer Properties of New Water-Soluble Ruthenium–Cyclopentadienyl Complexes” (Pharmaceuticals, 2022).
